Assay results taken from patent publication US20070049569A1, “Methods of using fatty-acid esters of estrogens and thermogenic compounds for reducing the body weight of a mammal and compositions containing the same” (Oleoyl-Estrone Developments SL, priority 2004, published 2007).

Assays:
[1] = Body weight and lipid changes of overweight male Wistar rats in the 10-day period of treatment; format: in vivo; conditions: 10-day treatment; oleoyl-estrone 10 micromol/kg daily gavage; CL-316243 1 mg/kg daily s.c. infusion
Text: (§1) Forty-five day-old male Wistar rats were used. The rats were kept in collective cages in a light cycle, temperature, and humidity-controlled environment. They were fed tap water and a self-selected cafeteria diet (containing an excess of tasty, energy-dense foods, as well as standard chow) for 45 additional days. Then they were subjected to a 5-day diet adaptation period, in which they had rat chow as the sole food available. At this point, the rats weighed 350-370 g and had significant amounts of body fat. Maintaining the availability of rat chow (daily consumption by the group was recorded) and tap water, body weight was recorded daily. The animals were given a daily gavage of either 0.2 mL of sunflower oil or the same vehicle containing oleoyl-estrone to a daily dose of 10 micromol/kg of body weight.
(§2) This standard feeding and drug administration schedule was complemented by treating one half of the animals receiving only oil and one half of the animals receiving oil and oleoyl-estrone with a daily dose of 1 mg/kg of CL-316243, a beta-3 adrenergic agonist. This drug was continuously administered by means of subcutaneous infusion using Alzet osmotic minipumps (model 2002; 0.5 microliter/h) loaded with drug dissolved in saline. The minipumps were inserted subcutaneously in the dorsal lumbar area of the experimental animals by means of a short cut in the skin. The pumps were tested before their implantation, and the fluid remaining in the minipumps was later measured in order to check the effectiveness of the infusion.
(§3) The treatment was maintained up to 10 days, when the animals were killed by decapitation, and their blood and carcass were used for analyses.
The rat corpses, partially exsanguinated were dissected. The stomach and intestines were cleaned of their contents. The remaining carcass was sealed into polyethylene bags, autoclaved and blended to a fine paste. This paste was analyzed for lipid content by extraction using trichloromethane/methanol and corrected by its water content. Lipid content in the paste was referred to whole in vivo body weight for comparison.
(§4) Samples of the rat paste were dried and used for the estimation of their caloric content using a bomb calorimeter. The initial values for lipid content were calculated from the corresponding in vivo body weights at the beginning of the experiment and applying to all the animals the mean percentage of lipid content found in the control (vehicle only) group at the end of the experiment. This same procedure was used to determine the overall energy content of the carcasses by using the experimentally found energy content of the rats in the control group. Likewise, the energy content of the pellet diet was also measured and used to estimate the energy intake of the animals.

[2] = Energy balance (carcass energy content, energy intake, energy expenditure) of treated male Wistar rats; format: in vivo; conditions: 10-day treatment; for changes in energy expenditure versus control group (in words): estimated as energy intake minus accrual; for loss of body energy: oleoyl-estrone 10 micromol/kg daily gavage, CL-316243 1 mg/kg daily s.c. infusion; for decrease in food consumption: versus control group
Text: as §1, §2, §3, §4
Energy expenditure (Ee) was estimated as the difference between energy intake (Ei) and accrual (Ea), since: Ei=Ee±Ea.

Row | Structure (SMILES) | loss of body weight [1] | loss of lipid (lipid stores) [1] | contribution of internal reserves to fuel the energy expenditure [2] | changes in energy expenditure versus control group (in words) [2] | loss of body energy [2] | increase in energy expenditure ([2]; rats treated with the beta-3 agonist, alone or with oleoyl-estrone) | decrease in food consumption [2]
1 | C[C@H](Cc1ccc2c(c1)OC(C(=O)[O-])(C(=O)[O-])O2)NC[C@H](O)c1cccc(Cl)c1.[Na+].[Na+] [beta-3 agonist] | less than 3% | 42% | 28% | higher than that of the control group by more than one-third | 821 kJ | 136% | did not show a significant loss of appetite
2 | CCCCCCCC/C=C\CCCCCCCC(=O)Oc1ccc2c(c1)CC[C@@H]1[C@@H]2CC[C@]2(C)C(=O)CC[C@@H]12 [oleoyl-estrone, [3(Z)]-3-[(1-oxo-9-octadecenyl)oxy]-estra-1,3,5(10)-trien-17-one] | about 8% | 13% | 19% | slight decrease | 354 kJ |  | 32%
